# How the values were obtained:
# in vitro = conditions: for Papp at 20 h, 500 µg/mL: PAMPA; for Pe ± SD: porcine brain lipid, 20 h, 25 °C; for BBB Permeation (Experimental): class from PAMPA-BBB Pe
# Protocol: Franz diffusion cells (Microette 8910130, Hanson Research) were employed to perform this assay. The compounds were dissolved in DMSO at 5 mg/mL and diluted to 500 µg/mL with phosphate-buffered saline (PBS)/EtOH (7:3) to make a stock solution. A total of 10 µL of porcine brain lipid (PBL) diluted in dodecane solution (20 mg/mL) was spread onto a PVDF membrane that was placed between the donor and acceptor compartments, forming a sandwich structure. Then, 4.5 mL of PBS/EtOH (7:3) was added to the acceptor compartment and 700 µL of the stock solution was added to the donor cell. […] The concentration of the compound was calculated from the standard curve and expressed as permeability (Pe) by the following formula [84]:Permeability (cm/s): Pe = {−ln [1 − CA(t)/Ceq]}/[A ∗ (1/VD + 1/VA) ∗ t]
# A = filter area ([…]), VD = donor cell volume (0.7 mL), VA = acceptor cell volume (4.5 mL), t = incubation time, CA (t) = compound concentration in acceptor cell at time t, CD (t) = compound concentration in donor cell at time t, and Ceq = [CD(t) ∗ VD + […] ∗ VA]/(VD + VA).
# Every sample was analyzed at least in duplicate and the data were reported as mean ± SD.
# HT-29 cells [1] = test: MTT cell viability assay, HT-29; format: cell-based; conditions: Homo sapiens, HT-29, 10 µM, 48 h, read-out: Cell growth % at 10 µM, HT-29
# Protocol: (§1) The cell lines were obtained from the American Type Culture Collection (ATCC). Five tumor cell lines (MDA-MB-231, MCF-7, HCT116, HTB-54, and DU-145) and two non-tumorigenic cells (184B5 and BEAS-2B) were grown in RPMI 1640 medium (Gibco), and the HT-29 tumor cell line was grown in McCoy’s medium. Both mediums were supplemented with 10% fetal bovine serum (FBS; Gibco) and 1% antibiotics (10.00 units/mL penicillin and 10.00 μg/mL streptomycin; Gibco). Cells were preserved in tissue culture flasks at 37 °C and 5% CO2. The culture medium was replaced every three days.
# (§2) The effect of each compound on cell viability was tested using the MTT assay. […] Selected compounds were then tested at seven different concentrations (0.5–100 μM) in MCF-7, HCT116, HT-29, HTB-54, 184B5 and BEAS-2B cells. Cells were seeded at 10^4 per well onto flat-bottomed 96-well culture plates. They were treated with either DMSO or increasing concentration of the corresponding compound for 48 h. Then, they were incubated with 20 μL of 3-(4,5-dimethylthiazol-2-yl)-2,5-diphenyltetrazolium bromide (MTT) (2 mg /mL stock; Aldrich) for 2,5 h and analyzed for their ability to generate a purple formazan dye. These formazan crystals were dissolved in 50 μL of DMSO. The absorbance was measured at a wavelength of 550 nm and the ratio of viable cells was calculated.
# (§3) Results are expressed as cell viability % at 10 μM. Selectivity index were calculated as the ratio of the IC50 values determined for the non-malignant and the tumor cells in breast (IC50 (184B5)/IC50 (MCF-7)) and lung (IC50 (BEAS-2B)/IC50 (HTB-54)) cell lines. Data were obtained from at least three independent experiments performed in triplicates.
# HTB-54 cells = test: MTT cell viability assay, HTB-54; format: cell-based; conditions: HTB-54; 10 µM, 48 h, MTT; read-out: Cell growth % at 10 µM, HTB-54
# Protocol: as §1, §2, §3
# DU-145 cells = test: MTT cell viability assay, DU-145; format: cell-based; conditions: Homo sapiens, DU-145, 48 h, read-out: Cell growth % at 10 µM, DU-145
# Protocol: as §1, §2, §3
# AChE = target: T1, AChE (Rattus norvegicus, UniProt P37136); test: AChE inhibition by Ellman's method (rat frontal cortex homogenate); format: biochemical
# T1 construct: from tissue; host or cells: frontal cortex of male Wistar rats (crude homogenate)
# T1 sequence (P37136 32-614): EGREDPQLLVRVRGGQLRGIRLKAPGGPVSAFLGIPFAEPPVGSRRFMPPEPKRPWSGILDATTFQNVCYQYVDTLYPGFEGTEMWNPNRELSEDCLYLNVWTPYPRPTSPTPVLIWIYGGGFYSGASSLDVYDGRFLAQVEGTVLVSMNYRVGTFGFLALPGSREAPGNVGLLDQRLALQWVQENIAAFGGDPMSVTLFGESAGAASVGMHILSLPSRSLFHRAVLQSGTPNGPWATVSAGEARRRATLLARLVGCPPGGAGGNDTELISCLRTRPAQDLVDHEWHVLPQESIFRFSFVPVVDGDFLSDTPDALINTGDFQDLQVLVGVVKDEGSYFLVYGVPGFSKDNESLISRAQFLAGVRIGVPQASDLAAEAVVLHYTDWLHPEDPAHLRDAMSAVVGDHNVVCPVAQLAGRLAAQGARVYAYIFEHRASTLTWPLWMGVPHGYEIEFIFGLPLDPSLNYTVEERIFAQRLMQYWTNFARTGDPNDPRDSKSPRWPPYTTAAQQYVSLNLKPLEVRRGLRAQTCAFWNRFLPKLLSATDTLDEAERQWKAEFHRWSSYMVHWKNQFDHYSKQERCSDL
# Protocol: Frontal cortex tissue obtained from male Wistar rats was homogenized in 39 volumes of 75 mM sodium phosphate buffer (pH 7.4). A mixture of 260 μL containing the compounds assessed, acetylthiocholine iodide and 5 μL tissue homogenate was incubated for 8 min. The reaction was then terminated by adding 50 μL 3% (w/v) sodium dodecyl sulphate followed by 50 μL 0.2% (w/v) 5,5′-dithio-bis(2-nitrobenzoic) acid to produce the yellow anion of 5-thio-2-nitro-benzoic-acid. The extent of the color production was measured spectrophotometrically at 405 nm using Multiskan Ex (Thermo Electron Corporation). […] Results are expressed as the mean ± SD and each experiment was repeated three times.
# MDA-MB-231 cells = test: MTT cell viability assay, MDA-MB-231; format: cell-based; conditions: Homo sapiens, MDA-MB-231, 48 h, read-out: Cell growth % at 10 µM, MDA-MB-231
# Protocol: as §1, §2, §3
# HT-29 cells [2] = conditions: parent NSAID; cited from earlier work
Compound,"Papp at 20 h, 500 µg/mL (in vitro) [×10⁻⁶ cm/s]",fold higher Pe compared to galantamine (in vitro; PAMPA-BBB) [fold],Pe ± SD (in vitro; PAMPA-BBB) [×10⁻⁶ cm/s],BBB Permeation (Experimental) (in vitro),viability at 10 µM (HT-29 cells [1]) [%],viability at 10 µM (HTB-54 cells) [%],viability at 10 µM (DU-145 cells) [%],IC50 (AChE) [µM],"% AChE Inhibition (AChE; at 10^−6 M, Ellman's method) [%]","inhibition at 1 µM (AChE; at 10^−6 M, Ellman's method) [%]",viability at 10 µM (MDA-MB-231 cells) [%],stability during the PAMPA-BBB experiment (in vitro; observation in words),IC50 (HT-29 cells [2]) [µM]
"C=CC[Se]C(=O)c1sccc1Cl [Compound 10a, Se-allyl 3-chlorothiophene-2-carboselenoate]",38.6 ± 1.3,3,38.63,High (High BBB permeation predicted; Pe (10^−6 cm s^−1) > 4.0),61.5 ± 17.6,27.1 ± 11.2,33.4 ± 6.4,2.4 ± 1.2,42.5 ± 6.4,42.5,41.3 ± 3.5,,
"C=CC[Se]C(=O)c1ccccc1O [Compound 13a, Se-allyl 2-hydroxybenzoselenoate]",,,,,88.8 ± 8.6,40.9 ± 4.9,29.5 ± 4.3,5.2 ± 2.3,,51.8 ± 4,77.1 ± 12.6,signs of degradation,
"COc1ccc2c3c1O[C@H]1C[C@@H](O)C=C[C@@]31CCN(C)C2 [Galantamine, galantamine, reference compound]",12.3 ± 3.1,,12.27,High (High BBB permeation predicted; Pe (10^−6 cm s^−1) > 4.0),,,,,,,,,
"CC(C)Cc1ccc(C(C)C(=O)O)cc1 (stereo not shown) [Ibuprofen, 2-(4-isobutylphenyl) propanoic acid]",,,,,,,,,,,,,> 50
"C#CC[Se]C(=O)c1cccnc1 [Compound 7b, Se-prop-2-ynyl pyridine-3-carboselenoate]",,,,,> 100,91.4 ± 6.6,54.6 ± 4.5,,,24.9 ± 2.2,91.3 ± 8.3,,
"C=CC[Se]C(=O)c1cccnc1 [Compound 7a, Se-allyl pyridine-3-carboselenoate]",,,,,64.3 ± 14.1,22 ± 5.1,51.7 ± 9.8,,,13.6 ± 5.5,35.3 ± 6.4,,
"C#CC[Se]C(=O)Cc1c(C)n(C(=O)c2ccc(Cl)cc2)c2ccc(OC)cc12 [Compound 17b, Se-prop-2-ynyl 2-(1-(4-chlorobenzoyl)-5-methoxy-2-methyl-1H-indol-3-yl)ethaneselenoate]",,,,,66.3 ± 10.2,85.9 ± 5.1,19.2 ± 4,,,23 ± 6.7,59.1 ± 11.5,,
"C=CC[Se]C(=O)c1ccco1 [Compound 11a, Se-allyl 4-furan-2-carboselenoate]",,,,,79.8 ± 16.3,30.7 ± 6.2,35.3 ± 5.8,,,18.6 ± 2.8,34.1 ± 10.6,,
"C=CC[Se]C(=O)C12CC3CC(CC(C3)C1)C2 [Compound 1a, Se-allyl adamantane-1-carboselenoate]",,,,,91 ± 3.6,72.1 ± 8.1,> 100,,,19.3 ± 4.1,92.6 ± 12.7,,
"C#CC[Se]C(=O)c1ccccc1Cl [Compound 3b, Se-prop-2-ynyl 2-chlorobenzoselenoate]",,,,,81.8 ± 15.2,> 100,41.6 ± 3.5,,,23.7 ± 9,93.2 ± 10.2,,
"C=CC[Se]C(=O)c1ccccc1Nc1cccc(C)c1C [Compound 18a, Se-allyl 2-(2,3-dimethylphenyl)aminebenzoselenoate]",,,,,71.5 ± 11.7,40.9 ± 18.5,74.7 ± 13.7,,,18.4 ± 3.6,85.9 ± 9.5,,
"C=CC[Se]C(=O)c1ccccc1 [Compound 2a, Se-allyl benzoselenoate]",,,,,85.3 ± 19.4,43.2 ± 9,65.6 ± 5.6,,,22.6 ± 1.6,37.9 ± 3.6,,
"C#CC[Se]C(=O)c1sccc1Cl [Compound 10b, Se-prop-2-ynyl 3-chlorothiophene-2-carboselenoate]",,,,,80.2 ± 10.9,81.2 ± 11.6,66.6 ± 8.7,,,24.4 ± 7.1,62.5 ± 7.7,,
"C#CC[Se]C(=O)c1ccccc1 [Compound 2b, Se-prop-2-ynyl benzoselenoate]",,,,,78.3 ± 6.9,78.3 ± 11.4,72.9 ± 13.6,,,26.9 ± 7.3,79.3 ± 18.7,,
"C=CC[Se]C(=O)c1cccnc1Cl [Compound 8a, Se-allyl 2-chloropyridine-3-carboselenoate]",,,,,62.2 ± 16.1,25.8 ± 5.2,49.5 ± 6.6,,,6.3 ± 4.1,37.1 ± 4.7,,
"C#CC[Se]C(=O)c1ccno1 [Compound 12b, Se-prop-2-ynyl isoxazole-5-carboselenoate]",,,,,81.3 ± 11.1,97.6 ± 7.1,95.1 ± 12.3,,,21.7 ± 7.9,92.5 ± 15.1,,
